Measurements published in patent publication US9271978B2 (Zenith Epigenetics Corp., priority 2012, dated 2016).

How the values were obtained:
ApoA-I mRNA = experiment: Up-regulation of hApoA-1 mRNA transcription in Huh7 cells; format: cell-based, human; set-up: key: Active: Compounds with an EC170 value less than 30 μM were deemed to be active; details: 48 h treatment, ApoA-I mRNA by real-time PCR, Active = EC170 less than 30 μM
In short: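 Huh7 cells treated with compound for 48 h. ApoA-I mRNA was then quantified in captured mRNA by one-step real-time RT-PCR. Fold induction calculated from Ct values relative to the matching DMSO control; EC170 is the concentration for 170% of control expression.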

hIL-6 mRNA = experiment: Inhibition of hIL-6 mRNA transcription in U937 cells; format: cell-based, human; set-up: key: Active: Compounds with an IC50 value less than 30 μM were deemed to be active.; Not Active: Compounds with an IC50 value less than 30 μM were deemed to be active; details: LPS stimulation, active = IC50 <30 μM
In short: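 U937 cells differentiated 3 days with 60 ng/mL PMA, pretreated 1 h with compound, then stimulated with 1 ug/mL E. coli LPS for 3 h at 37° C. hIL-6 mRNA quantified by one-step qRT-PCR, Ct normalized to internal control, expressed as fold induction relative to control.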

[1] = biological target: T1, Brd4 bromodomain 1 (BRD4(1)) (Homo sapiens, UniProt O60885); experiment: Inhibition of tetra-acetylated histone H4 binding to Brd4 bromodomain 1 (TR-FRET); set-up: key: Active: Compounds with an IC50 value less than 30 μM were deemed to be active.; Not Active: Compounds with an IC50 value less than 30 μM were deemed to be active; details: tetra-acetylated histone H4 peptide, active = IC50 <30 μM
T1 construct: Illustrative results with the first bromodomain of Brd4; made in house; host or cells: E. coli BL21 (DE3)
In short: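 N-terminally His-tagged bromodomains (200 nM), expressed in E. coli, were incubated with biotinylated tetra-acetylated histone H4 peptide (25-50 nM), Eu-cryptate streptavidin and XL665 anti-His antibody in HEPES pH 7.4 buffer with KF, 0.2% DMSO, 2 h at room temperature. Inhibition read as decreased 665/620 nm TR-FRET; IC50 from dose-response curves.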

c-myc = experiment: Inhibition of c-myc expression in MV4-11 cells (mRNA, real-time PCR); format: cell-based; set-up: key: Active: Compounds with an IC50 value less than 30 μM were deemed to be active.; Not Active: Compounds with an IC50 value less than 30 μM were deemed to be active; details: Human AML MV4-11 cells, 3 h incubation
In short: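 MV4-11 cells (2.5×10^4) treated with compound or 0.1% DMSO for 3 h at 37 °C. c-myc mRNA measured by RT real-time PCR duplexed with cyclophilin. IC50 from dose–response curve.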

Row | IL-6 activity (IC50 <30 μM) (hIL-6 mRNA) | FRET activity (IC50 <30 μM) BRD4(1) [1] | c-myc activity (IC50 <30 μM) (c-myc) | SMILES | ApoA-1 activity (EC170 <30 μM) (ApoA-I mRNA)
1 | Active | Active | Active | Cc1noc(C)c1-c1cc(N)c(=O)n(Cc2ccccc2)c1 [Example 73, 3-Amino-1-benzyl-5-(3,5-dimethylisoxazol-4-yl)pyridin-2(1H)-one] | Active
2 | Active | Active | Active | Cc1noc(C)c1-c1cc(N)c(=O)n(Cc2ccc(F)cc2)c1 [Example 180, 3-amino-5-(3,5-dimethylisoxazol-4-yl)-1-(4-fluorobenzyl)pyridin-2(1H)-one] | Active
3 | Active | Active | Active | Cc1noc(C)c1-c1cc(N)c(=O)n(Cc2ccsc2)c1 [Example 219, 3-amino-5-(3,5-dimethylisoxazol-4-yl)-1-(thiophen-3-ylmethyl)pyridin-2(1H)-one] | Active
4 | Active | Active | Active | Cc1noc(C)c1-c1cc(N)c(=O)n(Cc2ccc(Br)cc2)c1 [Example 241, 3-Amino-1-(4-bromobenzyl)-5-(3,5-dimethylisoxazol-4-yl)pyridin-2(1H)-one] | Active

The remaining lines, values behind:

Row | SMILES | IL-6 activity (IC50 <30 μM) (hIL-6 mRNA) | FRET activity (IC50 <30 μM) BRD4(1) [1] | c-myc activity (IC50 <30 μM) (c-myc) | ApoA-1 activity (EC170 <30 μM) (ApoA-I mRNA)
5 | Cc1noc(C)c1-c1ccc(=O)n(Cc2ccccc2)c1 [Example 56, 1-Benzyl-5-(3,5-dimethylisoxazol-4-yl)pyridin-2(1H)-one] | Active | Active | Active | Active
6 | Cc1noc(C)c1-c1ccc(=O)n(Cc2ccc(Cl)cc2)c1 [Example 128, 1-(4-Chlorobenzyl)-5-(3,5-dimethylisoxazol-4-yl)pyridin-2(1H)-one] | Active | Active | Active | Active
7 | Cc1noc(C)c1-c1ccc(=O)n([C@H](C)c2ccccc2)c1 [Example 134, (R)-5-(3,5-Dimethylisoxazol-4-yl)-1-(1-phenylethyl)pyridin-2(1H)-one] | Active | Active | Active | Active
